Blank lines part the entries; values can stand above or below the compound they belong to.
Legend:
Type in all cases: physicochemical
[1] = Stability of camptothecin carboxylate in concentrated alkaline media (HPLC)
Description: CPT-carboxylate can be obtained quantitatively from the lactone form of CPT by incubation the latter with at least an equimolar amount or an excess of base (e.g. NaOH or NH4OH). In the most simple approach CPT lactone is stirred with 1 M NaOH or NH4OH ovenight. Higher concentrations are favourable to accelerate the process.
Camptothecin in the lactone form was dissolved at a concentration of 4.6 μg/ml in concentrated ammonia (NH4OH) in order to obtain the carboxylate form. HPLC analysis was performed directly after dissolving the lactone and after 19 days.

[2] = Fraction of free (non-liposomally bound) CPT by Vivaspin 2 centrifugal filtration (MWCO 100 kDa) and UV-spectroscopy of the filtrate
Description: For direct comparison, CPT-carboxylate loaded liposomes were made by one of the techniques as given in the literature. Liposomes, loaded with CPT-carboxylate produced by the inventive method were prepared with the same total composition. The fraction of free (non-liposomally bound) CPT was determined in both cases. The free CPT was determined by centrifugation with the centrifugal concentrator Vivaspin 2 (Vivasciences). By a membrane of MWCO 100 kDa, the molecularly dissolved solutes were separated from the colloidal particles. The concentration of CPT in the filtrate was determined by UV-spectroscopy. All measurements with camptothecin were made with tris/HCI buffer, pH 7.5, 10 mM or 20 mM.
For the production of classically made formulations, the liposomes were formed directly in the aqueous solution of CPT carboxylate. By subsequent extrusion through membranes of 200 nm pore size homogeneous mixing and encapsulation was provided. The liposomes were made either by the ‘film method’ or by ‘ethanol injection’.
For the film method, a solution of lipids in chloroform is evaporated in a round bottom flask. A thin dry lipid film is formed at the inner wall of the flask. For the production of empty liposomes, the film is reconstituted with water or buffer solution. For the production of CPT loaded liposomes, the film is reconstituted with the CPT-carboxylate solution. […]
A lyophilisate of DOTAP liposomes (30 mM) was reconstituted with 2.088 ml of an aqueous solution of CPT carboxylate in water (1.4 mM). […] From the resulting preparation the fraction of free CPT was determined by centrifugation at different lipid concentrations.
1 ml of the DOTAP concentrate and 9 ml of CPT carboxylate solution, c=[…] were mixed. […] This preparation was diluted 1:10 1:25 and 1:50 and the fraction of free CPT was determined.
Liquid DOTAP formulations were exposed to CPT-carboxylate solutions for different time scales. […] After the given time, the fraction of free CPT was determined for different dilutions. […]

[3] = Solubility of camptothecin in buffered aqueous phase at different pH values; conditions: 50 mM buffer, pH values below 7, within few days
Description: In this measurements, the solubility of camptothecin in aqueous media at different pH values is investigated. Pure camptothecin carboxylate was dissolved in a buffered (50 mM) aqueous phase at different pH values. At different times the solutions were centrifuged in order to remove camptothecin lactone crystals and the remaining concentration of the camptothecin in the supernatant was determined by UV-vis spectroscopy. […] These concentrations are too low for sufficient pharmaceutical efficacy.

[4] = Loading of aminofluorescein to DOTAP/DOPC liposomes, cross-flow filtration and UV-vis; conditions: DOTAP/DOPC 1:1 liposomes, after three cycles of filtration
Description: A 25 mM liposome formulation consisting of DOTAP/DOPC 1:1 in a solution of 5% glucose (w/v) was prepared. Briefly, a solution of DOTAP/DOPC in chloroform was put into a round bottom flask, and the solvent was evaporated in order to obtain a thin lipid film. The lipid film was reconstituted with the glucose solution to a total lipid concentration of 25 mM. The resulting multilamellar, polydisperse liposome suspension was extruded through a membrane of 200 nm pore size to obtain liposomes of uniform size.
10 ml of the liposome preparation and 10 ml of a 5 mM aqueous solution of aminofluorescein were combined.
Subsequently, the molecularly dissolved components were removed by cross-flow filtration, using a VIVAFLOW filtration kit, […] and a Masterflex easy lod pump, model.
20 ml of the preparation were diluted with 20 ml glucose. By the subsequent dialysis, part of the solvent and the molecularly dissolved (low molecular) compound penetrated across the separation membrane, while the liposomes were retained. Filtration was performed until the volume of the original solution was reduced to half of the start volume. Then the lost volume was substituted by glucose solution and the filtration was started again. Three filtration cycles were performed.
The concentration of aminofluorescein in the permeate and in the retained liposome suspension was determined by UV-vis spectroscopy.

Compound: CCC(O)(C(=O)O)c1cc2n(c(=O)c1CO)Cc1cc3ccccc3nc1-2 (centres unmarked) [camptothecin carboxylate]
- chemical degradation [1]: no indication for chemical degradation
- loading efficacy in DOTAP/DOPC liposomes ([2]; 30-100% DOTAP, total lipid 15 mM, CPT 0.75 mM, additional presence of DOPC): only slightly reduced

Compound: CC[C@@]1(O)C(=O)OCc2c1cc1n(c2=O)Cc2cc3ccccc3nc2-1 [Camptothecin, 20(S)-Camptothecine (1H-Pyrano[3′,4′:6,7]indolizino[1,2-b]quinoline-3,14 (4H,12H)-dione, 4-ethyl-4-hydroxy-, (S)—)]
- concentration of camptothecin remaining in supernatant [3]: very low values
- degradation by the alkaline medium (HPLC) ([1]; 4.6 μg/ml in concentrated ammonia (NH4OH), after 19 days): no indication for a degradation
- loading of DOTAP liposomes with CPT at first time point after mixing ([2]; DOTAP 15 mM, CPT carboxylate 0.75 mM, original concentration, Tris/HCl 10 mM pH 7.5): loading reached saturation
- time up to which fraction of loaded drug increased ([2]; diluted samples of DOTAP 15 mM/CPT 0.75 mM mixture, not stirred): up to 4 hours

- amount retained with the liposome suspension ([4]; 5% glucose): 47 % of the original concentration
- retained amount relative to expected value without any retention [4]: four times as high
Compound: aminofluorescein

Source: patent publication US20070148250A1, “Loading of a camptothecin drug into colloidal nanoparticles” (priority 2003, published 2007)
